How the values were obtained:
dCK in HL-60 cells = test: Deoxycytidine kinase activity, HL-60; format: cell-based, human; conditions: HL-60, 24 h incubation
Protocol: (§1) Deoxycytidine kinase activity was measured in accordance with the manufacturer’s protocol. The cells, at final concentration were plated at 1 × 10^6 cells per 24-well plates and cultured with the tested compounds for 24 h. Some cells were preincubated with an ATR kinase inhibitor (VE-821) for 1 h at 37 °C before adding the tested compounds. After drug treatment, the cells were washed with PBS and resuspended in an ice-cold cytosol extraction buffer containing 1 mM phenylmethylsulfonyl fluoride (PMSF) and a protease inhibitor cocktail. The cell lysate was centrifuged at 10,000 × g for 30 min at 4 °C. The protein concentration was determined using the Bradford method. The supernatant (cytosolic fraction) was collected and stored at −80 °C. The clarified cytoplasm extracts, dCK standards, and blank control were added to the appropriate microtiter plate wells with a biotin-conjugated polyclonal antibody prepared specifically for dCK. Avidin conjugated to horseradish peroxidase (HRP) was added to each microplate well and incubated. Then, a TMB substrate solution was added to the plate. […] The enzyme-substrate reaction was terminated by addition of a sulfuric acid solution. The color change was measured spectrophotometrically at a wavelength of 450 nm using a microplate reader (BioTek).

dCK in MOLT-4 cells = test: Deoxycytidine kinase activity, MOLT-4; format: cell-based, human; conditions: MOLT-4, 24 h incubation
Protocol: as §1

dCK in THP-1 cells = test: Deoxycytidine kinase activity, THP-1; format: cell-based, human; conditions: THP-1, 24 h incubation
Protocol: as §1

[1] = tested on: leukemic cells (HL-60, MOLT-4, THP-1); test: XTT cytotoxicity assay, leukemic cells overall; format: cell-based, human; conditions: for cytotoxicity (in words): XTT, leukemic cell lines
Protocol: (§2) The cytotoxic activity test with XTT (sodium 3′-[1-(phenylaminocarbonyl)- 3,4-tetrazolium]-bis (4-methoxy-6-nitro) benzene sulfonic acid hydrate) is a colorimetric method for determining the parameters associated with cell viability. The cytotoxicity in HL-60, THP-1, MOLT-4, and HMEC-1 cells was measured by the XTT assay. XTT is reduced to formazan by the mitochondrial respiratory chain oxidoreductase, which is active only in living cells. The formed crystals of formazan are dissolved directly in the medium. The amount of product is proportional to the number of live cells.
(§3) The IC50 parameter was determined by dividing the mean absorbance values of the drug-treated samples by those of control cells and defined as the drug concentration causing a 50% reduction of cell viability relative to the control. It was calculated using the “Ed50v10(1)” computer application. Cells were plated in 96-well plates at a density of 15 × 10^3 cells in 100 μL culture medium. Drugs were then added at a concentration range of 10 nM–10,000 nM to obtain a final volume of the mixture of 150 μL. Some cells were preincubated with an ATR kinase inhibitor (VE-821) for 1 h at 37 °C before adding the tested compounds. In this case drugs were added at a concentration range of 10 nM–300 nM. For the XTT assay, after 48 h of incubation, the plates were centrifuged at 1,500 rpm for 10 min at 4 °C, the culture medium was removed, and the cells were suspended in 100 mm^3 of HBSS (Hank’s Buffered Salt Solution) containing 140 mM NaCl, 5 mM KCl, 0.8 mM MgCl2, 1.8 mM CaCl2, 1 mM Na2HPO4, 10 mM HEPES (N- (2-hydroxyethyl) -piperazine-N′- (2-ethanesulfonic acid), and 1% glucose at pH 7.4. Then, 50 μL of XTT solution (in PBS) was added to a final concentration of […]. In addition, PMS (phenazine methosulphate) - methyl dibenzo-N-methylpyrazine sulphate (0.383 mg/cm^3) was used, which was combined with XTT solution at a ratio of 1:50. After 4 h of incubation with XTT, absorbance was measured at a wavelength λ = 450 nm and reference wavelength λ = 690 nm with a microplate reader (BioTek, Winooski, VT, USA).

γH2AX in HL-60 cells = test: H2AX (phospho S139) In-Cell ELISA, HL-60; format: cell-based, human; conditions: HL-60, 48 h, versus control cells
Protocol: The level H2AX protein phosphorylated Ser139 was measured in tested leukemia cells by using of In-Cell ELISA, ICE assay kit. The cells were seeded on 96-well plates (100 × 10^3/well) and 48 h later, incubated with the appropriate compounds. In some experimental variants, cells were preincubated for 1 h with VE-821 (10 µM). The cells were fixed by adding a final concentration of 4% paraformaldehyde solution (10 min, room temperature). After 2 h of Block Solution incubation, cells were treated with a highly specific antibody. A rabbit monoclonal antibody specific to H2AX (phospho S139) was used (at 1:100, 2 h incubation). Next Secondary Antibody Solution (at 1:1000) were added to the cells. The measurements were obtained on a fluorescence plate reader at an excitation wavelength of 680 nm and emission at 694 nm. The cells were PBS washed and 100 µL of Janus Green Stain was added to each well of the plate (5 min., room temperature). The data were collected at excitation wavelength of 750 nm and emission at 800 nm channel (Fluoroskan Cary Eclipse). Antibody signal intensity was normalized to the total amount using Janus Green cell-stain.

THP-1 cells [2] = test: XTT cytotoxicity assay, THP-1; format: cell-based, human; conditions: Homo sapiens, THP-1; XTT, 48 h incubation, none in the picture
Protocol: as §2, §3

HL-60 cells [3] = test: XTT cytotoxicity assay, HL-60; format: cell-based; conditions: Homo sapiens, 48 h incubation, none in the picture
Protocol: as §2, §3

HMEC-1 cells = test: XTT cytotoxicity assay, HMEC-1 (normal dermal endothelium); format: cell-based; conditions: Homo sapiens, 48 h incubation, none in the picture
Protocol: as §2, §3

MOLT-4 cells = test: XTT cytotoxicity assay, MOLT-4; format: cell-based, human; conditions: Homo sapiens, MOLT-4; XTT, 48 h incubation, none in the picture
Protocol: as §2, §3

[4] = tested on: caspase-3/7 in HL-60 cells; test: Caspase 3/7 assay, HL-60; format: cell-based, human; conditions: HL-60, 48 h
Protocol: (§4) The activities of caspases-3 and −7 were estimated with CellEvent™ Caspse-3/7 Green Detection Reagent (Thermo Fisher Scientific) according to the manufacturer’s protocol. The cells were seeded on 96-well plates (15 × 10^3/ well) and 24 h later, incubated with the appropriate drugs for 24 h or 48 h. The cells were fixed by adding a final concentration of 4% paraformaldehyde solution (10 min, room temperature). Cells were labeled with CellEvent™Caspase-3/7 Green Detection Reagent (5 µM), followed by Hoechst 33342 (5 µg/ml) for 15 minutes in complete medium3. Caspase-3/7 Green Detection Reagent was diluted into PBS with 5% FBS to avoid fluorescence background. After activation of caspase-3/7 in apoptotic cells, the DEVD peptide was cleaved, enabling the dye to bind DNA, which produced a bright, fluorogenic response with absorption/emission maxima of 502/530 nm according with manufacture protocol. Fluorescence intensity was measured using a Fluoroskan Ascent FL plate reader (Labsystem, Sweden). Cysteine protease activity was expressed as a ratio of fluorescence of the drug-treated samples to the corresponding untreated controls (taken as 100%). In some experimental variants, cells were preincubated for 1 h with VE-821 (10 µM) or Z-FA-FMK (caspas-3 inhibitor, 0.5 µM) to confirm that the fluorescence observed in both control and drug-treated cells was due to the presence of caspase-3/7 in samples. The caspase 3/7 signal was normalized to the Hoechst 33342 staining intensity to account for differences in cell seeding density (description in: Intracellular calcium assay section).

HL-60 cells [5] = test: Comet assay with proteinase K post-treatment (DNA-protein cross-links), HL-60; format: cell-based, human; conditions: HL-60, starting at 2 h of incubation
Protocol: (§5) Single cell gel electrophoresis (comet assay) was used to detect alkali labile sites, single and double DNA strand breaks, and cross-links induced by genotoxic agents. After electrophoresis and gel staining with 4,6-diamidino-2-phenylindole (DAPI), the released DNA was visible under a fluorescence microscope as a characteristic comet tail. The cells were plated on 24-well plates (20,000 cells/mL) and treated with CLA, CLA-FMOR, CLA-FPIP, or CLA-FPIR at the indicated concentrations for 2, 24, and 48 h at 37 °C. Some cells were preincubated with an ATR kinase inhibitor (VE-821) for 1 h at 37 °C before adding the tested compounds. Next, cells were collected into Eppendorf tubes and rinsed with PBS. Then, cells were suspended in 0.75% low melting point (LMP) agarose dissolved in PBS (pH 7.4) and placed on microscope slides precoated with 0.5% normal melting point (NMP) agarose. Subsequently, the slides were treated with a cooled lysis buffer (2.5 M NaCl, 100 mM EDTA, 10 mM Tris, 1% Triton X-100, pH 9.0) for 1–24 h at 4 °C. Then, slides were placed in developing buffer (300 mM NaOH, 1 mM EDTA) for 20 min. Electrophoresis was performed in […] (30 mM NaOH, 1 mM EDTA) at 29 V and 30 mA for 20 min. The samples were stained with DAPI ([…]). The slides were stored in a wet chamber at 4 °C and analyzed under a fluorescence microscope. Fifty randomly selected cells from each slide were measured using image analysis (Nikon, Japan) attached to a COHU 4910 video camera, which was equipped with a UV-1 filter block consisting of an excitation filter (359 nm) and a barrier filter (461 nm) connected to the image analysis system Lucia-Comet v. 4.51 (Czech Republic)[41]. In the samples preincubated with VE-821, the level of DNA damage associated with the ATR kinase was determined.
Because cross-links can be undetectable in the alkaline comet assay, a variant of this method including post-treatment with proteinase K (Cat no: P2308) was used. Proteinase K digests peptide bonds, releasing the cross-linked DNA […] the DNA-protein complexes without altering the structure of the DNA-DNA complexes to distinguish them. After lysis, the slides were washed three times in TE buffer (10 mM Tris, pH 10, 1 mM EDTA). The cells were treated with aliquots of proteinase K (60 µL per slide; 1 mg/mL TE buffer) for 1 h at 37 °C in a wet chamber. Further steps of the comet assay were performed as described above.

THP-1 cells [6] = test: Comet assay with proteinase K post-treatment (DNA-protein cross-links), THP-1; format: cell-based, human; conditions: THP-1, 24 h
Protocol: as §5
Because cross-links can be undetectable in the alkaline comet assay, a variant of this method including post-treatment with proteinase K (Cat no: P2308) was used. […]

[7] = tested on: caspase-3/7 in THP-1 cells; test: Caspase 3/7 assay, THP-1; format: cell-based, human; conditions: THP-1, 48 h
Protocol: as §4, with “After activation of caspase-3/7 in apoptotic cells, the DEVD peptide was cleaved, enabling the dye to bind DNA, which produced a bright, fluorogenic response with absorption/emission maxima of 502/530 nm according with manufacture protocol.” left out, “The caspase 3/7 signal was normalized to the Hoechst 33342 staining intensity to account for differences in cell seeding density (description in: Intracellular calcium assay section).” left out

[8] = tested on: caspase-3/7 in MOLT-4 cells; test: Caspase 3/7 assay, MOLT-4; format: cell-based, human; conditions: MOLT-4, 48 h
Protocol: as §4, with “After activation of caspase-3/7 in apoptotic cells, the DEVD peptide was cleaved, enabling the dye to bind DNA, which produced a bright, fluorogenic response with absorption/emission maxima of 502/530 nm according with manufacture protocol.” left out, “The caspase 3/7 signal was normalized to the Hoechst 33342 staining intensity to account for differences in cell seeding density (description in: Intracellular calcium assay section).” left out

SMILES: CS(=O)(=O)c1ccc(-c2cnc(N)c(C(=O)Nc3ccccc3)n2)cc1 [C+VE-821, reference compound]
- dCK activity (dCK in HL-60 cells): decreased dCK activity
- dCK activity (dCK in MOLT-4 cells): decreased dCK activity
- dCK activity (dCK in THP-1 cells): decreased dCK activity
- effect of ATR inhibitor on cytotoxicity of CLA and derivatives ([1]; 10 μM VE-821 preincubation, XTT 48 h): reduces the cytotoxicity of all tested compounds

SMILES: Nc1nc(Cl)nc2c1ncn2[C@H]1C[C@H](O)[C@@H](CO)O1 [CLA, cladribine, reference compound]
- increase in γH2AX level (γH2AX in HL-60 cells): ~ 2.4 fold
- IC50 (THP-1 cells [2]): 56 nM
- IC50 (HL-60 cells [3]): 246 nM
- IC50 (HMEC-1 cells): 126 nM
- IC50 (MOLT-4 cells): 103 nM

SMILES: CN(C)C=Nc1nc(Cl)nc2c1ncn2[C@H]1C[C@H](O)[C@@H](CO)O1 [CLA-FDMF, [6-deamino-6-(N′,N′-dimethyl formamidine)] cladribine]
- IC50 (THP-1 cells [2]): 220 nM
- IC50 (HL-60 cells [3]): 184 nM
- IC50 (HMEC-1 cells): 412 nM
- IC50 (MOLT-4 cells): 220 nM
- cytotoxicity (in words) [1]: low cytotoxicity

SMILES: OC[C@H]1O[C@@H](n2cnc3c(N=CN4CCCCCC4)nc(Cl)nc32)C[C@@H]1O [CLA-FHEX]
- IC50 (THP-1 cells [2]): 172 nM
- IC50 (HL-60 cells [3]): 647 nM
- IC50 (HMEC-1 cells): 1080 nM
- IC50 (MOLT-4 cells): 348 nM
- cytotoxicity (in words) [1]: low cytotoxicity

SMILES: CN1CCN(C=Nc2nc(Cl)nc3c2ncn3[C@H]2C[C@H](O)[C@@H](CO)O2)CC1 [CLA-FPAZ]
- IC50 (THP-1 cells [2]): 168 nM
- IC50 (HL-60 cells [3]): 190 nM
- IC50 (HMEC-1 cells): 710 nM
- IC50 (MOLT-4 cells): 353 nM
- cytotoxicity (in words) [1]: low cytotoxicity

SMILES: OC[C@H]1O[C@@H](n2cnc3c(N=CN4CCCCC4)nc(Cl)nc32)C[C@@H]1O [CLA-FPIP, [6-deamino-6-(N′, N′-1′, 5′-pentamethylene formamidine)] cladribine]
- IC50 (THP-1 cells [2]): 69 nM
- IC50 (HL-60 cells [3]): 133 nM
- caspase-3/7 level [4]: highest changes
- DNA-protein cross-links after proteinase K (HL-60 cells [5]): increased the level of cross-links
- IC50 (HMEC-1 cells): 435 nM
- IC50 (MOLT-4 cells): 110 nM
- cytotoxicity (in words) [1]: high cytotoxic activity
- DNA damage in the tail after proteinase K (THP-1 cells [6]): increased

SMILES: CC(NC(=O)[C@H](Cc1ccccc1)NC(=O)OCc1ccccc1)C(=O)CF (some centres unmarked) [Z-FA-FMK, reference compound]
- caspase-3/7 level [7]: totally prevented caspase activation
- caspase-3/7 level [4]: totally prevented caspase activation
- caspase-3/7 level [8]: totally prevented caspase activation
